Test results as given in patent US12351574B2, “Selective ligands for modulation of GIRK channels” (Northeastern University, priority 2018, dated 2025).
“Also recorded” adds a separate entry of the source.

Assays:
GIRK1/2 = biological target: T1, GIRK1/2 (UniProt P48542+P48549); experiment: two-electrode voltage clamp (TEVC) in Xenopus oocytes expressing GIRK1/2 wild-type; type: cell-based, human GIRK1, mouse GIRK2; parameters: expressed in transfected cells; host or cells: Xenopus laevis oocytes (cRNA injection); details: for activation of GIRK1/2 (in words) / potency/efficacy compared to GAT1508 (in words): concentration-response, FIGS. 34A-34I; for Emax: ML297 considered 100%, read-out: EMAX at GIRK1/2, % relative to ML297; for selectivity for GIRK1/2 over GIRK1/4 (in words) / EC50: TEVC; for selectivity for GIRK1/2 over GIRK1/4 (in words): GIRK1/2 versus GIRK1/4; for EC50: Xenopus oocytes, GIRK1/2 wild-type; for EMAX at GIRK1/2: current normalized to basal current
T1 sequence (P48549 1-501): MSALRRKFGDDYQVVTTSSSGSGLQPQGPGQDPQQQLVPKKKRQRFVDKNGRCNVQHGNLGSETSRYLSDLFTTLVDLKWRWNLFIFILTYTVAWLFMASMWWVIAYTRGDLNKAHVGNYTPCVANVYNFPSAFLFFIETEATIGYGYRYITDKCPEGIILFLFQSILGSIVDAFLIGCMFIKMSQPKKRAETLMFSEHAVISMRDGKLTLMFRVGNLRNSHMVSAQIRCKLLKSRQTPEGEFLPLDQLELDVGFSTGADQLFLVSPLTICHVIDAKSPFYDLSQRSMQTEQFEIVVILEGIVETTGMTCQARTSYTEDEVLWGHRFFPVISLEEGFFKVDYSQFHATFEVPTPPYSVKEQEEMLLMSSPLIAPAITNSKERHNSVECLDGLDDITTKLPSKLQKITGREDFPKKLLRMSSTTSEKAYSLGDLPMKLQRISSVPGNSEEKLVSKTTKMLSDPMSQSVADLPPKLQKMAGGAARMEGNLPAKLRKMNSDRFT
T1 sequence (P48542 1-425): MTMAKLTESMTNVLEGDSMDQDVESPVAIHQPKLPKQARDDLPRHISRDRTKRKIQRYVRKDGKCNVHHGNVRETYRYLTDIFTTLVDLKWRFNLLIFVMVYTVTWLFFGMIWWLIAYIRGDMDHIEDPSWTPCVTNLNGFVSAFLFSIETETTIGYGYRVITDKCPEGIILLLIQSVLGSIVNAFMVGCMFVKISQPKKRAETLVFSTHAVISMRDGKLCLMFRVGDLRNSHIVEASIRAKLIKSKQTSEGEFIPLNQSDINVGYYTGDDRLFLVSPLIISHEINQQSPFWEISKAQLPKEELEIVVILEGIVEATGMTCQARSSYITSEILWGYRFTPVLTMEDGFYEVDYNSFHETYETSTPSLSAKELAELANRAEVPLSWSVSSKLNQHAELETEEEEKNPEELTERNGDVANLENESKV
Text: (§1) Molecular biology: For Xenopus oocyte expression, human GIRK1 and human GIRK4 cDNAs were subcloned into pGEMHE. For mammalian expression, human GIRK1 and human GIRK4 cDNAs were subcloned into pcDNA3 and pcDNA3.1/V5-His B, respectively (Invitrogen). Mouse GIRK2 cDNA was subcloned in the dual-function vector, pXoom. Point mutations were introduced using a standard Pfu-based mutagenesis technique according to the QuikChange protocol (Agilent). Mutations were verified by sequencing.
(§2) Xenopus laevis oocyte expression: Plasmid DNAs of GIRK channel subunits were linearized prior to in vitro transcription. Capped RNAs were transcribed using mMESSAGE mMACHINE T7 Transcription Kit (Thermo Fisher Scientific). Xenopus oocytes were surgically extracted, dissociated and defolliculated by collagenase treatment, and microinjected with 50 nl of a water solution containing 1 ng of each GIRK subunit RNA. For TEVC experiments, oocytes were kept 2 days at 17° C. before recording, while for NPo experiments oocytes were incubated for up to 4 days at 17° C.
(§3) Xenopus laevis oocyte expression: All cDNA constructs in the pGEMHE vector were linearized using the NheI restriction enzyme, whereas those in the pXoom vector were linearized using the XhoI restriction enzyme. Linearized cDNAs were in vitro-transcribed using the mMessage mMachine® kit (Ambion) kit. Complementary RNA (cRNA) concentrations were quantified by optical density. Xenopus oocytes were surgically extracted, dissociated, and defolliculated by collagenase treatment and microinjected with 50 nl of the desired cRNAs diluted in RNAase-free water. The use of Xenopus laevis frogs for this study was approved by the Institutional Animal Care and Use Committee (IACUC) at Northeastern University. All constructs used in this study were injected to achieve between 1-2 ng per oocyte depending on the channel. Oocytes were incubated for 2 days at 18° C.
(§4) Electrophysiology of oocytes: Whole-oocyte currents were measured by conventional two-electrode voltage clamp (TEVC) with a GeneClamp 500 amplifier (Axon Instruments). […] Barium-sensitive currents were normalized to average basal current in the vehicle solutions. The HK solution contained the following: 96 mM KCl, 1 mM NaCl, 1 mM MgCl2, 5 mM KOH/HEPES, pH 7.4. The barium solution consisted of HK+10 mM BaCl2. Five to ten oocytes from the same batch (same frog) were recorded for each group, and the experiments were repeated in at least four batches. Data acquisition and analysis were carried out using pClamp9 (Molecular Devices) and OriginPro (Microcal) software.

GIRK1/4 = biological target: T2, GIRK1/4 (Homo sapiens, UniProt P48544+P48549); experiment: two-electrode voltage clamp (TEVC) in Xenopus oocytes expressing GIRK1/4 wild-type; type: cell-based; parameters: expressed in transfected cells; host or cells: Xenopus laevis oocytes (cRNA injection); details: for activation of GIRK1/4 (in words): concentration-response, FIGS. 34A-34I; for modulation of GIRK1/4 channels (in words): Examples 5 and 6, Xenopus oocytes; for Emax: ML297 considered 100%, read-out: EMAX at GIRK1/4, % relative to ML297; for EC50: TEVC, Xenopus oocytes, GIRK1/4 wild-type; for EMAX at GIRK1/4: current normalized to basal current
T2 sequence (P48549 1-501): T1 sequence (P48549 1-501)
T2 sequence (P48544 1-419): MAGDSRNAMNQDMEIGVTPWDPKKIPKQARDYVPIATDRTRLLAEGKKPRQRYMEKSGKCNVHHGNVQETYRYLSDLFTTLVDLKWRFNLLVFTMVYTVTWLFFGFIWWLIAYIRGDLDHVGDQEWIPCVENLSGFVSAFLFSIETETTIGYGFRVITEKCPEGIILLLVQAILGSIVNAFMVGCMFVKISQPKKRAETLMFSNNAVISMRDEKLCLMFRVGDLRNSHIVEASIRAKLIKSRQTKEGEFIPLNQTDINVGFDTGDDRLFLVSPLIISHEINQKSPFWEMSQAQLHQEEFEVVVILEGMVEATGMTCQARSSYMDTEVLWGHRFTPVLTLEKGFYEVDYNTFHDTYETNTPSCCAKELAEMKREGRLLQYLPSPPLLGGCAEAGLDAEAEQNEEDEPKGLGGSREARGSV
Text: as §1, §2, §3, §4

[1] = test system: BLA neurons (GIRK currents); experiment: whole-cell patch-clamp in acute brain slices, basolateral amygdala (BLA) neurons; type: cell-based, rat; details: 100 ms puff of 100 μM, compared to baseline
Method: Electrophysiological recordings from brain slices containing basolateral amygdala (BLA) neurons: Electrophysiology was performed using 150-200 g male Sprague-Dawley rats (Harlan/Envigo, Indianapolis, IN). Rats were group housed in plastic cages in standard housing conditions with ad libitum access to food and water with 12:12 light/dark cycle (lights on at 07:00 h). All experiments were conducted in accordance with the Guide for the Care and Use of Laboratory Animals (Institute for Laboratory Animal Research, The National Academies Press) and the guidelines of the IUPUI Institutional Animal Care and Use Committee. Rats were anesthetized with isoflurane and immediately decapitated. Brains were then rapidly removed, placed in ice-cold oxygenated artificial cerebrospinal fluid solution (ACSF) and coronal slices ([…]) were prepared containing the amygdala. Slices were incubated at 31° C. for 30 min and then returned to room temperature until recording. [ACSF solution in mM: 130 NaCl; 3.5 KCl; 1.1 KH2PO4; 1.3 MgCl2; 2.5 CaCl2; 30 NaHCO3; 10 glucose, 315 mOsm, 7.4 pH]. Cells were identified for recording at 40× magnification using Scientifica Slicescope microscope under DIC illumination (Scientifica, Uckfield, UK). ACSF was warmed to 30° C. and perfused at a rate of 2-3 ml/min during recordings. Compounds were added to ACSF at desired concentrations. Whole-cell patch-clamp recordings were obtained using standard techniques. Borosilicate glass electrodes (WPI, Sarasota, FL) (resistance 3-6 MΩ) were prepared and used for both recording and baclofen application. [Recording internal solution in mM: 140 K-gluconate; 2 KCl; 3 MgCl2; 10 HEPES; 5 Phosphocreatinine; 2 K-ATP; 0.2 Na-GTP, 290 mOsm, 7.4 pH]. In voltage-clamp mode, the cell was adjusted to −50 mV at the beginning of all experiments and 5 min stable baseline was established before treatment. Picospritzer II (Parker Hannifin, Hollis, NH) was utilized for local application of 100 μM GABA-B agonist baclofen in ACSF to activate GIRKs. Baseline and baclofen-induced currents were averaged from three responses per cell and analyzed using ClampFit software (Molecular Devices, San Jose, CA). […] Several control cells were subjected to baclofen at 2 min intervals for 30 min and consistent responses were observed, thus ruling out time-dependent effects.
The inventors employed whole-cell patch-clamp recording in acute brain slices to examine the effect of GAT1508. The inventors utilized brain slices that included the basolateral amygdala (BLA), a limbic structure that has been extensively described to coordinate the acquisition and expression of fear memories. […] Next, the inventors examined the response of BLA neurons to baclofen, a GABAB-receptor agonist that induces GIRK-mediated potassium currents. […]

Structure (SMILES) | activation of GIRK1/2 (in words) (GIRK1/2) | activation of GIRK1/4 (in words) (GIRK1/4) | Emax (GIRK1/2) | selectivity for GIRK1/2 over GIRK1/4 (in words) (GIRK1/2) | EC50 (GIRK1/2) | potency/efficacy compared to GAT1508 (in words) (GIRK1/2) | EMAX at GIRK1/2 (GIRK1/2) | Emax (GIRK1/4) | EC50 (GIRK1/4) | EMAX at GIRK1/4 (GIRK1/4) | also measured
Cc1cc(NC(=O)Nc2ccc(I)s2)n(-c2ccccc2)n1 [GAT1574, 1-(5-iodothiophen-2-yl)-3-(3-methyl-1-phenyl-1H-pyrazol-5-yl)urea] | poorer activator than the bromine analog; also recorded: negligible | poorer activator than the bromine analog; also recorded: negligible |  |  |  |  |  |  |  |  | 
Cc1nn(-c2ccccc2)c(NC(=O)Nc2ccc(F)c(F)c2)c1Br [GAT1528] |  |  |  |  |  |  |  |  |  |  | modulation of GIRK1/2 channels (in words) (GIRK1/2; Examples 5 and 6, Xenopus oocytes): no effect on basal activity; modulation of GIRK1/4 channels (in words) (GIRK1/4): selective for GIRK1/4 inhibition against GIRK1/2 channel activity
Cc1cc(NC(=O)Nc2cccs2)n(-c2ccccc2)n1 [GAT1506, 1-(3-methyl-1-phenyl-1H-pyrazol-5-yl)-3-(thiophen-2-yl)urea] |  |  | 155% | lacked selectivity | 17.1 ± 0.28 µM | less potent than GAT1508 | 3.9±1.04 | 157% | 7.02 ± 0.24 µM | 1.95±0.21 | 
Cc1cc(NC(=O)Nc2cnc(Br)s2)n(-c2ccccc2)n1 [GAT1530, 1-(2-bromothiazol-5-yl)-3-(3-methyl-1-phenyl-1H-pyrazol-5-yl)urea] |  |  |  | lack of specificity |  |  |  |  |  |  | 
Cc1cc(NC(=O)Nc2sccc2Br)n(-c2ccccc2)n1 [GAT1570, 1-(3-bromothiophen-2-yl)-3-(3-methyl-1-phenyl-1H-pyrazol-5-yl)urea] | much poorer activators; also recorded: negligible | much poorer activators; also recorded: negligible |  |  |  |  |  |  |  |  | 
Cc1cc(NC(=O)N/C=C/c2ccccc2)n(-c2ccccc2)n1 [GAT1537] |  |  |  |  |  |  |  |  |  |  | modulation of GIRK1/4 channels (in words) (GIRK1/4): little or no effect
Cc1cc(NC(=O)Nc2ccc(Cl)s2)n(-c2ccccc2)n1 [GAT1501, 1-(5-chlorothiophen-2-yl)-3-(3-methyl-1-phenyl-1H-pyrazol-5-yl)urea] |  | did not show activation of GIRK1/4 at concentrations less than 20 μM; also recorded: negligible | 96% | retained some selectivity | 4.05 ± 0.14 µM | less potent than GAT1508 for GIRK1/2 | 2.797±0.18 |  |  |  | 
NCC(CC(=O)O)c1ccc(Cl)cc1 (stereo not drawn) [baclofen, reference compound] |  |  |  |  |  |  |  |  |  |  | current response of BLA neurons (in words) [1]: induced a significant outward current
Cc1cc(NC(=O)Nc2cc(Br)cs2)n(-c2ccccc2)n1 [GAT1502, 1-(4-bromothiophen-2-yl)-3-(3-methyl-1-phenyl-1H-pyrazol-5-yl)urea] | much poorer activators | much poorer activators | 91% |  | 4.41 ± 0.15 µM |  | 2.70±0.20 | 104% | 3.13 ± 0.24 µM | 1.63±0.09 | 
Cc1cc(NC(=O)Nc2ccc(F)s2)n(-c2ccccc2)n1 [GAT1575, 1-(5-fluorothiophen-2-yl)-3-(3-methyl-1-phenyl-1H-pyrazol-5-yl)urea] |  |  | 210% | less selective between GIRK1/2 and GIRK1/4 than GAT1508 | 9.39 ± 0.12 µM | highly efficacious but much less potent than GAT1508 | 4.92±0.49 | 192% | 11.2 ± 0.25 µM | 2.16±0.32 | 
